From US8664214B2, “Small molecule potentiators of metabotropic glutamate receptors I” (AbbVie Deutschland GmbH & Co. KG, priority 2010, dated 2014)

These compounds were tested against T1, human mGlu2 receptor (Homo sapiens, UniProt Q14416) (assay: FLIPR intracellular Ca2+ assay, potentiation of 1 μM glutamate in HEK293 cells expressing hmGlu2, rGLAST and Galpha16). Details: HEK293 hmGlu2 clone.
T1 construct: V5/His (named only as part of the vector); expressed in transfected cells; host or cells: HEK293
T1 sequence (Q14416 19-872): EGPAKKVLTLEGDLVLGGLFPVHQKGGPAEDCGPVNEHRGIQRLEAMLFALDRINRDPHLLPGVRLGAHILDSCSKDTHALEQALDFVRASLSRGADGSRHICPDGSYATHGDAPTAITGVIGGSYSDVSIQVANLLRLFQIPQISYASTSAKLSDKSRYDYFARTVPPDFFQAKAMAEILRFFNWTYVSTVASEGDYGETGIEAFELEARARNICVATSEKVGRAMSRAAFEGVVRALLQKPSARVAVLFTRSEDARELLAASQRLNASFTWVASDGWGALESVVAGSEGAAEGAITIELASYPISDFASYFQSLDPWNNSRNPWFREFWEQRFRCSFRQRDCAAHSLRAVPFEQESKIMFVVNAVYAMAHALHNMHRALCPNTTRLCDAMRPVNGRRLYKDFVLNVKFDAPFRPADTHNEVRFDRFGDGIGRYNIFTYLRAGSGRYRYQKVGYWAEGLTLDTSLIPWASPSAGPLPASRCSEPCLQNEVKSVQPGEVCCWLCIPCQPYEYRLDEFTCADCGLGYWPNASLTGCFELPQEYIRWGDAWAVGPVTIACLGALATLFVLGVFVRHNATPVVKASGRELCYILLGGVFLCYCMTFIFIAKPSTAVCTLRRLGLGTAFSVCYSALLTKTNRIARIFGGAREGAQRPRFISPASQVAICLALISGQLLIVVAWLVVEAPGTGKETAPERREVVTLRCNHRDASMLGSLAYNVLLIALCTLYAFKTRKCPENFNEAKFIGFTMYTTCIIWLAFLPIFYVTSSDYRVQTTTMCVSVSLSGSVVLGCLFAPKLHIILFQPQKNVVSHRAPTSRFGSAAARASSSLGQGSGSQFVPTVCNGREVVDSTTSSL
Assay type: cell-based
Source text: The compounds of the present invention can be tested e.g. by evaluating intracellular Ca^2+ concentrations in cells permanently expressing human mGlu receptor, the rat glutamate transporter rGLAST and the Galpha16 subunit of the G-protein complex under standard conditions in a fluorometric imaging plate reader (FLIPR, Molecular Devices, Union City, Calif. 94587, USA) by measuring the response of the cells to a test compound in the absence of presence of glutamate. The FLIPR assay is a common functional assay to monitor native or recombinant Galphaq-coupled receptors, and native or recombinant receptors normally linked to other G-protein signalling cascades, which are coupled to calcium through co-expression of an alpha subunit of a promiscuous or chimeric G-protein. In the assay the increase of intracellular calcium is measured through a calcium-dependent fluorescent dye (e.g. Fluo-4 AM) in the FLIPR instrument.
For the purpose of the present study, a cell line permanently expressing a human mGlu receptor, such as the mGlu2 receptor, the rat glutamate transporter rGLAST and the GalphaG16 may be generated by transfection as described in the examples. For selection of a suitable cell clone and also the subsequent measurements, the selected clone the cells will be plated on suitable multiwell plates in a suitable medium (e.g. DMEM Glutamax (GIBCO # 21885-025)/10% dialyzed FCS). Cells may be selected by gentamycin treatment as described in the examples. Cells will then be loaded with a suitable Ca^2+ sensitive fluorescence dye, e.g. with 2 μM Fluo-4 AM (Molecular Probes, F14201). Cells will then be washed with a suitable buffer (e.g. HEPES) and the thus treated plates will be measured in a fluorometric imaging plate reader (e.g. FLIPR, Molecular Devices, Union City, Calif. 94587, USA).
The compounds of the present invention were tested in the above-described FLIPR assay using the selected cell clone. Increased intracellular calcium levels were quantified following addition of test compound (agonism), as well as following addition of a submaximal concentration of glutamate (potentiation).
For the determination of the effect of the test compound by itself (agonism) or by increasing the response to a submaximal concentration (e.g. 1 μM) of glutamate (potentiation), the resulting signal is determined by subtraction of the background fluorescence from the maximal fluorescent peak height of the respective response. In the FLIPR instrument the compound is given to the cell and its fluorescence response quantified by the FLIPR instrument (agonism). The concentration at which the compound exerts half its maximal effect is named the ‘effective concentration 50’ or ‘EC50’. The maximal effect induced by the test substance is normalized to the maximal effect exerted by 100 μM glutamate (set at 100%).
After addition of the test compound to the plate, a submaximal concentration of glutamate (e.g. 1 μM glutamate) will be added. A potentiator enhances the response of the receptor to glutamate. The response to glutamate in the presence of test compound is quantified. The concentration at which the test compound is able to exert half its maximal potentiation effect to glutamate is named the ‘EC50’. The maximal response to the submaximal concentration of glutamate (e.g. 1 micromolar glutamate) in the presence of test compound is normalized to the maximal effect exerted by 100 micromolar glutamate (set at 100%). Least squares curve fitting with a four-parameter equation is then applied to the resulting dose-response curve to determine the resulting EC50 values (Graph Pad Prism).
For the purpose of the present study, a cell line permanently expressing the human mGlu2 receptor, the rat glutamate transporter rGLAST and the alpha subunit of G16 was generated by transfection. […]

Row | SMILES | EC50
1 | CCCN1Cc2cc(OCc3cnccc3Oc3ccccc3)ccc2C1=O [Example 3, 5-((4-phenoxypyridin-3-yl)methoxy)-2-propylisoindolin-1-one] | 500 to 2000 nM
2 | CCCN1Cc2cc(OCc3cnccc3NC(=O)OC(C)(C)C)ccc2C1=O [Example 8, [3-(1-oxo-2-propyl-2,3-dihydro-1H-isoindol-5-yloxymethyl)-pyridin-4-yl]-carbamic acid tert-butyl ester] | 2000 to 10000 nM
3 | CCCCN1Cc2cc(NCc3c(C(F)(F)F)ccnc3Cl)ccc2C1=O [Example 17, 2-butyl-5-((2-chloro-4-(trifluoromethyl)pyridin-3-yl)methylamino)-isoindolin-1-one] | < 500 nM
4 | CCCCN1Cc2cc(NCc3cnccc3Nc3ccccc3)ccc2C1=O [Example 19, 2-butyl-5-((4-(phenylamino)pyridin-3-yl)methylamino)isoindolin-1-one] | 500 to 2000 nM
5 | CCCCN1Cc2cc(NCc3cnccc3-c3ccc(C#N)cc3)ccc2C1=O [Example 20, 4-(3-((2-butyl-1-oxoisoindolin-5-ylamino)methyl)pyridin-4-yl)benzonitrile] | < 500 nM
6 | CCCCN1Cc2cc(NCc3cnccc3-c3ccc(C(F)(F)F)cc3)ccc2C1=O [Example 21, 2-butyl-5-((4-(4-(trifluoromethyl)phenyl)pyridin-3-yl)methylamino)-isoindolin-1-one] | < 500 nM
7 | CCCCN1Cc2cc(NCc3cccnc3)ccc2C1=O [Example 22, 2-butyl-5-[(pyridin-3-ylmethyl)amino]-2,3-dihydro-1H-isoindol-1-one] | 2000 to 10000 nM
8 | Cc1cc(-c2ccccc2)c(CNc2cc(Cl)c3c(c2)CN(C2CC2)C3=O)c(C)n1 [Example 23, 7-chloro-2-cyclopropyl-5-{[(2,6-dimethyl-4-phenylpyridin-3-yl)methyl]amino}-2,3-dihydro-1H-isoindol-1-one] | < 500 nM
9 | O=C1c2c(Cl)cc(NCc3c(C(F)(F)F)ccnc3Cl)cc2CN1C1CC1 [Example 24, 7-chloro-5-({[2-chloro-4-(trifluoromethyl)pyridin-3-yl]methyl}amino)-2-cyclopropyl-2,3-dihydro-1H-isoindol-1-one] | < 500 nM
10 | CCCCN1Cc2cc(NCc3cnccc3N3CCOCC3)ccc2C1=O [Example 25, 2-butyl-5-({[4-(morpholin-4-yl)pyridin-3-yl]methyl}amino)-2,3-dihydro-1H-isoindol-1-one] | 500 to 2000 nM
11 | CCCCN1Cc2cc(NCc3cnccc3N3CCN(C)CC3)ccc2C1=O [Example 26, 2-butyl-5-({[4-(4-methylpiperazin-1-yl)pyridin-3-yl]methyl}amino)-2,3-dihydro-1H-isoindol-1-one] | 2000 to 10000 nM
12 | CCCCN1Cc2cc(NCc3c(C)ccnc3Cl)ccc2C1=O [Example 33, 2-butyl-5-{[(2-chloro-4-methylpyridin-3-yl)methyl]amino}-2,3-dihydro-1H-isoindol-1-one] | 500 to 2000 nM
13 | CCCCN1Cc2cc(NCc3ccc(Br)nc3Cl)ccc2C1=O [Example 34, 5-{[(6-bromo-2-chloropyridin-3-yl)methyl]amino}-2-butyl-2,3-dihydro-1H-isoindol-1-one] | 500 to 2000 nM
14 | CCCCN1Cc2cc(NCc3c(Cl)ccnc3Cl)ccc2C1=O [Example 35, 2-butyl-5-{[(2,4-dichloropyridin-3-yl)methyl]amino}-2,3-dihydro-1H-isoindol-1-one] | < 500 nM
15 | CCCCN1Cc2cc(NCc3ccc(Cl)nc3OC)ccc2C1=O [Example 36, 2-butyl-5-{[(6-chloro-2-methoxypyridin-3-yl)methyl]amino}-2,3-dihydro-1H-isoindol-1-one] | 500 to 2000 nM
16 | CCCCN1Cc2cc(NCc3ccc(OC)nc3Cl)ccc2C1=O [Example 37, 2-butyl-5-{[(2-chloro-6-methoxypyridin-3-yl)methyl]amino}-2,3-dihydro-1H-isoindol-1-one] | 500 to 2000 nM
17 | CCCCN1Cc2cc(NCc3cccnc3Cl)ccc2C1=O [Example 38, 2-butyl-5-{[(2-chloropyridin-3-yl)methyl]amino}-2,3-dihydro-1H-isoindol-1-one] | 2000 to 10000 nM
18 | COCCN1Cc2cc(NCc3c(C(F)(F)F)ccnc3Cl)cc(C)c2C1=O [Example 39] | 500 to 2000 nM
19 | CCCCN1Cc2cc(NCc3cnccc3NCc3ccccc3)ccc2C1=O [Example 42, 5-((4-(benzylamino)pyridin-3-yl)methylamino)-2-butylisoindolin-1-one] | 2000 to 10000 nM
20 | CCCCN1Cc2cc(NCc3cnccc3NC(=O)C(C)(C)C)ccc2C1=O [Example 43, N-(3-((2-butyl-1-oxoisoindolin-5-ylamino)methyl)pyridin-4-yl)pivalamide] | 500 to 2000 nM
21 | Cc1cc(-c2ccccc2)c(COc2ccc3c(c2)CN(CCOC(F)(F)F)C3=O)c(C)[n+]1[O-] [Example 44, 2,6-dimethyl-3-((1-oxo-2-(2-(trifluoromethoxy)ethyl)-isoindolin-5-yloxy)-methyl)-4-phenylpyridine 1-oxide] | < 500 nM

Now from value to compound:

Row | EC50 | SMILES
22 | < 500 nM | CCCCN1Cc2cc(OCc3c(-c4ccccc4)cc(C)nc3C)ccc2C1=O [Example 1, 2-butyl-5-((2,6-dimethyl-4-phenylpyridin-3-yl)methoxy)isoindolin-1-one]
23 | < 500 nM | Cc1cc(-c2ccccc2)c(COc2ccc3c(c2)CN(CCOC(F)(F)F)C3=O)c(C)n1 [Example 2, 5-((2,6-dimethyl-4-phenylpyridin-3-yl)methoxy)-2-(2-(trifluoromethoxy)ethyl)isoindolin-1-one]
24 | < 500 nM | CCCCN1Cc2cc(OCc3c(-c4ccccc4)ccnc3Cl)ccc2C1=O [Example 4, 2-butyl-5-((2-chloro-4-phenylpyridin-3-yl)methoxy)isoindolin-1-one]
25 | < 500 nM | CCCCN1Cc2cc(OCc3c(I)ccnc3Cl)ccc2C1=O [Example 5, 2-butyl-5-((2-chloro-4-iodopyridin-3-yl)methoxy)isoindolin-1-one]
26 | < 500 nM | CCCN1Cc2cc(OCc3cnccc3-c3ccccc3)ccc2C1=O [Example 6, 5-(4-Phenyl-pyridin-3-ylmethoxy)-2-propyl-2,3-dihydro-isoindol-1-one]
27 | < 500 nM | O=C1c2ccc(OCc3cnccc3-c3ccccc3)cc2CN1CCOC(F)(F)F [Example 7, 5-(4-Phenyl-pyridin-3-ylmethoxy)-2-(2-trifluoromethoxy-ethyl)-2,3-dihydro-isoindol-1-one]
28 | < 500 nM | CCN1Cc2cc(OCc3c(-c4ccccc4)cc(C)nc3C)ccc2C1=O [Example 11, 5-(2,6-Dimethyl-4-phenyl-pyridin-3-ylmethoxy)-2-ethyl-2,3-dihydroisoindol-1-one]
29 | < 500 nM | CCCCN1Cc2cc(NCc3c(-c4ccccc4)cc(C)nc3C)ccc2C1=O [Example 13, 2-butyl-5-((2,6-dimethyl-4-phenylpyridin-3-yl)methylamino)isoindolin-1-one]
30 | < 500 nM | CCCCN1Cc2cc(NCc3cnccc3C(F)(F)F)ccc2C1=O [Example 14, 2-butyl-5-((4-(trifluoromethyl)pyridin-3-yl)methylamino)isoindolin-1-one]
31 | < 500 nM | CCCCN1Cc2cc(NCc3cnccc3-c3ccccc3)ccc2C1=O [Example 15, 2-butyl-5-((4-phenylpyridin-3-yl)methylamino)isoindolin-1-one]
32 | < 500 nM | CCCCN1Cc2cc(NCc3cnccc3Oc3ccccc3)ccc2C1=O [Example 16, 2-butyl-5-((4-phenoxypyridin-3-yl)methylamino)isoindolin-1-one]
